These results are taken from US6316594A, “Antimicrobial peptide isolated from parasilurus asotus and its uses” (priority 1998, dated 2001).

Peptide text beside a SMILES is read from it.

Series [1] concerns Bacillus subtilis ATCC 62037. The series is described as follows: MIC, microdilution in 96-well plate. The class given is cell-based. The conditions noted are these: overnight 37° C., 3% TSB. The source says: (§1) All of the microorganisms used in the invention were obtained from the American Type Culture Collection (ATCC) Used were Bacillus subtilis ATCC 62037, Staphylococcus aureus ATCC 15752, Streptococcus mutans ATCC 25175, Pseudomonas putida ATCC 17426, Escherichia coli ATCC 27325, Salmonella typhimurium ATCC 15277, Seratia sp. ATCC 21074, Cryptococcus neoformans ATCC 34881, Saccharomyces cerevisiae ATCC 44774 and Candida albicans ATCC 10231.
(§2) The parasin I and its derivatives obtained in Example I were lyophilized, resuspended in water and assayed for antimicrobial activity against B. subtilis ATCC 62037. The purity of the isolated peptides was analyzed by reverse-phase HPLC and MALDI-MS (Kratos Kompact MALDI, England). The antimicrobial activity of the samples was determined during each purification step by the radial diffusion assay using B. subtilis ATCC 62037 according to the method of Lehrer et al. ((1991) J. Immunol. Methods, 137, 167-173). A 20 ml culture of B. subtilis ATCC 62037 cell in mid-logarithmic phase was washed with 10 mM sodium phosphate buffer (NAPB), pH 7.4, at […], and resuspended in 10 ml of the same buffer. A cell suspension containing 1×10^6 bacterial colony forming units (CFUs) was added to 6 ml of an underlayer agar (10 mM sodium phosphate, 1% (v/v) trypticase soy broth (TSB), 1% (w/v) agarose, pH 6.5) and this resulting mixture was poured into a Petri dish. Samples were added, at an amount of 5 μl, directly in 3-mm wells which were made on the solidified underlayer agar. After incubation for 3 hours at 37° C., the underlayer agar was covered with a nutrient-rich top agar overlay (6% (w/v) TSB, 1% (w/v) agarose) and incubated overnight at 37° C. Antimicrobial activity was determined by observing the zone of suppression of bacterial growth around the 3-mm wells. The minimal inhibitory concentrations (MICs) of the isolated peptide against the microorganisms were determined as described by Moore et al. ((1991) J. Biol. Chem., 266, 19851-19857). 100 μl microorganism suspensions (10^5 CFU/ml) in 3% (w/v) TSB were mixed with serial two-fold dilutions of the isolated peptide in a sterilized 96-well microtiter plate (Nunc, Denmark). The final concentration of the peptide ranged 0.5-200 μg/ml. The 96-well plate was incubated overnight at 37° C. and the inhibition of growth was determined by measuring the absorbance at 620 nm on a microplate reader, such as that sold by B10-Rad, U.S.A., under the brand name of Model 550. The MIC was defined as the lowest concentration of peptide that inhibited growth. In respect to the test for antimicrobial activity, 10 different microorganisms, including Gram-negative bacteria, Gram-positive bacteria and fungi were used.
Background: In broth dilution the organism is exposed to a series of concentrations in liquid medium.

The subject of series [2] is Candida albicans ATCC 10231. The experiment in a line: MIC, microdilution in 96-well plate. It counts as cell-based. The conditions noted are these: overnight 37° C., 3% TSB.
Source text: as §1, §2

Series [3] relates to Cryptococcus neoformans ATCC 34881. The experiment in a line: MIC, microdilution in 96-well plate. It counts as cell-based. The conditions noted are these: overnight 37° C., 3% TSB.
Source text: as §1, §2

For series [4], the system named is Escherichia coli ATCC 27325. The experiment in a line: MIC, microdilution in 96-well plate. The class given is cell-based. The settings on record: overnight 37° C., 3% TSB.
Source text: as §1, §2

Series [5] concerns Pseudomonas putida ATCC 17426. The experiment in a line: MIC, microdilution in 96-well plate. It counts as cell-based. The settings on record: overnight 37° C., 3% TSB.
Source text: as §1, §2

For series [6], the system named is Saccharomyces cerevisiae ATCC 44774. The series is described as follows: MIC, microdilution in 96-well plate. The class given is cell-based. The settings on record: overnight 37° C., 3% TSB.
Source text: as §1, §2

The subject of series [7] is Salmonella typhimurium ATCC 15277. The series is described as follows: MIC, microdilution in 96-well plate. The class given is cell-based. The conditions noted are these: overnight 37° C., 3% TSB.
Source text: as §1, §2

In series [8] the test system is Serratia sp. The series is described as follows: MIC, microdilution in 96-well plate. The class given is cell-based. The settings on record: overnight 37° C., 3% TSB.
Source text: as §1, §2

Series [9] deals with Staphylococcus aureus ATCC 15752. The experiment in a line: MIC, microdilution in 96-well plate. It counts as cell-based. The settings on record: overnight 37° C., 3% TSB.
Source text: as §1, §2

Series [10] concerns Streptococcus mutans ATCC 25175. The series is described as follows: MIC, microdilution in 96-well plate. It counts as cell-based. The conditions noted are these: overnight 37° C., 3% TSB.
Source text: as §1, §2

The test system of series [11] is human erythrocytes. The experiment in a line: Hemolytic activity assay. The settings on record: peptide 200 μg/ml. Here is the method:
The hemolytic activity of the antimicrobial peptide was assayed as described by Park et al. (9).

The term MIC denotes the least concentration at which growth counts as inhibited. As to Magainin 2 [reference compound], the minimum inhibitory concentration (MIC) stood at 50 µg/mL in series [1]; 25 µg/mL in series [2]; 12 µg/mL in series [3]; 100 µg/mL in series [4]; 50 µg/mL in [5]; 25 µg/mL in [6]. For the same compound, the MIC came to 25 µg/mL in series [7], 50 µg/mL in [8], 50 µg/mL in series [9] and 100 µg/mL in [10].
For the compound “K G R G K Q G G K V R A K A K T R (KGRGKQGGKVRAKAKTR) [Seq. No. 2, synthetic derivative deficient of 2 carboxyl terminal residues of parasin I]”, the MIC in series [1] turned out to be 0.5 µg/mL; in series [2] it was 1 µg/mL; in series [3] it was 1 µg/mL; in series [4] it was 0.5 µg/mL; in [5] it was 2 µg/mL; in series [6], 2 µg/mL. Further, the MIC was 1 µg/mL in series [7], 2 µg/mL in series [8], 1 µg/mL in series [9] and 0.5 µg/mL in [10].
Regarding “K G R G K Q G G K V R A K A K (KGRGKQGGKVRAKAK) [Seq. No. 3, synthetic derivative deficient of 4 carboxyl terminal residues of parasin I]”, the MIC was 1 µg/mL in series [1]; 4 µg/mL in [2]; 2 µg/mL in series [3]; 1 µg/mL in [4]; 2 µg/mL in [5]; 2 µg/mL in series [6]. Besides, the MIC in series [7] was determined as 2 µg/mL; in series [8], 4 µg/mL; in series [9] it was 2 µg/mL; in [10], 1 µg/mL.
As for “K G R G K Q G G K V R A K A K T R S S (KGRGKQGGKVRAKAKTRSS) [Seq. No. 1]”, the MIC was 0.5 µg/mL in series [1]; 1 µg/mL in series [2]; 1 µg/mL in [3]; 0.5 µg/mL in series [4]; 2 µg/mL in series [5]; 1 µg/mL in series [6]. Moreover, the MIC turned out to be 1 µg/mL in [7], 4 µg/mL in series [8], 1 µg/mL in series [9] and 0.5 µg/mL in [10].
As for Buforin I [reference compound], the MIC in [1] was 4 µg/mL; in series [2], 4 µg/mL; in [3], 4 µg/mL; in [4] it was 8 µg/mL; in series [5], 4 µg/mL; in series [6] it was 4 µg/mL. Also, the MIC in series [7] came out at 4 µg/mL; in series [8] it was 8 µg/mL; in series [9], 4 µg/mL; in [10], 8 µg/mL.
Regarding `CC(C)[C@H](NC(=O)[C@H](CCCCN)NC(=O)CNC(=O)CNC(=O)[C@H](CCC(N)=O)NC(=O)[C@H](CCCCN)NC(=O)CNC(=O)[C@H](CCCNC(=N)N)NC(=O)CNC(=O)[C@@H](N)CCCCN)C(=O)N[C@@H](CCCNC(=N)N)C(=O)N[C@@H](C)C(=O)N[C@@H](CCCCN)C(=O)N[C@@H](C)C(=O)N[C@@H](CCCCN)C(=O)N[C@H](C(=O)N[C@@H](CCCNC(=N)N)C(=O)N[C@@H](CO)C(=O)N[C@@H](CO)C(=O)O)[C@@H](C)O` [Parasin I, Lys-Gly-Arg-Gly-Lys-Gln-Gly-Gly-Lys-Val-Arg-Ala-Lys-Ala-Lys-Thr-Arg-Ser-Ser] (H-KGRGKQGGKVRAKAKTRSS-OH), in series [11], the hemolysis turned out to be 0.2%.
